Reference: US20130288897A1, “SYNERGISTIC PESTICIDAL COMPOSITIONS” (Dow AgroSciences LLC, priority 2012, published 2013)

Key:
Assay type in all cases: in vivo
[1] = tested on: cotton aphid (CA) Aphis gossypii; test: Cotton aphid track-sprayer test on cotton: Compound A or imidacloprid with Durango (glyphosate) or Durango Blank and AMS (Example XVI); details: average of 5 reps
Procedure: Glyphosate resistant cotton plants (Gossypium hirsutum, cv ‘DP493’) were trimmed to 1 true leaf and infested with mixed stages of cotton aphid (CA) Aphis gossypii 24 h prior to application. Mixed developmental stage CA were infested onto the upper surface of each treated leaf by transferring infested foliage from an insectary colony. Each plant was infested with approximately equal numbers of CA based on visual estimation of aphid density on the infested material. Infested plants were held in the growth chamber (L:D 16:8 and 25° C.). Glyphosate (Durango®, Dow AgroSciences, LLC, Indianapolis, Ind.) was mixed with water at a rate equivalent to 15 ml/L (1.2 qt/Ac). […] A glyphosate free formulation of Durango® was prepared using these same mixing instructions. […] High rate Compound A concentrations were created by diluting Compound A technical material with acetone to achieve a 10 ppm solution. […] […] […] Nozzle height above the canopy was held constant at ca. 30 cm. Plants were evaluated after 3 days from the time of infestation by counting all live cotton aphids on each plant.
[…] Percent control for all treatments was calculated using the rep average for the untreated plants.

[2] = tested on: cotton aphid (CA) Aphis gossypii; test: Cotton aphid track-sprayer test on cotton: Compound A or imidacloprid with glufosinate (Liberty) and AMS (Example XVII); details: AMS 18 mg/ml, no insecticide, no glufosinate
Procedure: (§1) Glyphosate resistant cotton plants (Gossypium hirsutum, cv ‘DP493’) were trimmed to 1 true leaf and infested with mixed stages of cotton aphid (CA) Aphis gossypii 24 h prior to application. Mixed developmental stage CA were infested onto the upper surface of each treated leaf by transferring infested foliage from an insectary colony. Each plant was infested with approximately equal numbers of CA based on visual estimation of aphid density on the infested material. Infested plants were held in the growth chamber (L:D 16:8 and 25° C.). Glufosinate (Liberty®, Bayer CropScience, Monheim am Rhein, Germany) was mixed with water at a rate equivalent to 5 ml/L (0.4 qt/Ac). […] High rate Compound A concentrations were created by diluting Compound A technical material with acetone to achieve a 10 ppm solution. […] […] […] Nozzle height above the canopy was held constant at ca. 30 cm. Plants were evaluated after 3 days from the time of infestation by counting all live cotton aphids on each plant.
TABLE 6 contains the calculated Colby values for combinations of treatments as well as the outcome of statistical evaluations between predicted (Colby) and actual measured values. These T-test statistics were only calculated for the 0.2 and 0.05 g/Ha rates. […] These same trends were apparent when Compound A was applied with both glufosinate and AMS.

[3] = tested on: cotton aphid (CA) Aphis gossypii; test: Cotton aphid track-sprayer test on cotton: Compound A with glufosinate (Liberty) and AMS, rates 0.4, 0.1 and 0.025 g/Ha (Example XVIII); details: AMS 18 g/L, no insecticide, no Lib.
Procedure: as §1, with “24 hours” for “24 h”, “a 20” for “a 10”

`N.N.O=S(=O)(O)O` [AMS, ammonium sulfate] was tested, and the “% control Ave” value ([1]; AMS 18 g/L alone, 0 g insecticide/Ha, block of Durango treatments) was −7.0%, the “% control Ave” value ([1]; AMS 18 g/L alone, no insecticide, block of Durango Blank treatments) was 13.3% and the “% control Ave” value ([1]; AMS 18 g/L with Durango Blank 0.015 ml/ml, no insecticide) was 26.5%. The “% control AVE” value [2] was 4.5% and the “% Control (Negatives to zero) Ave” value [3] was 13.2%.
